Earlier results in patent US20050196418A1, “Bioavailability and improved delivery of alkaline pharmaceutical drugs” (priority 2004, published 2005).

Settings: free base; due to air oxidation

## Clc1ccccc1C(c1ccccc1)(c1ccccc1)n1ccnc1 [Clotrimazole]
  chemical stability in a solution or formulation for shelf storage: chemically unstable
